Values of other authors, collected in patent US9877951B2, “Method for treating dementia” (College of William and Mary, priority 2015, dated 2018).
Read-outs that look alike come from different tables or passages of the source.

Experiments:
[1] = storage
[2] = for ability of DCS to facilitate extinction: DCS for five consecutive days
[3] = tested on: Mycobacterium tuberculosis strains; settings: typical Mycobacterium tuberculosis strains
[4] = not given; remark: listed apart in the source
[5] = chronic dosing at typical tuberculosis doses

Question: For CC(=O)C=C(C)N[C@@H]1CONC1=O [(R)-4-[(1-methyl-3-oxo-1-butenyl)-amino]-3-isoxazolidinone], which “stability relative to DCS” value [1] is on record?
Answer: enhanced stability relative to DCS

Question: For CN(C)CCCN1c2ccccc2CCc2ccccc21 [imipramine], which “effect on ability of DCS to facilitate extinction learning” value ([2]; rats, daily administration of imipramine for 15 days) is on record?
Answer: blocked the ability of DCS to facilitate extinction learning

Question: For N[C@@H]1CON=C1O [DCS, 3-Isoxazolidinone, 4-amino-, (4R)-(9Cl)], which “minimum inhibitory concentrations (MIC) in vitro” value [3] is on record?
Answer: 6 to 25 µg/mL

Question: And the “benefit on Alzheimer's Disease” value (100 mg daily administration (Tsai et al.))?
Answer: positive benefit

Question: What about the “benefit for treatment of Alzheimer's Disease” value (up to 50 mg daily dosing, 410-patient trial (Fakouhi et al.)) of the same compound?
Answer: did not have a significant benefit

Question: And the “ability of DCS to facilitate extinction learning” value ([2]; rats exposed to DCS for 15 consecutive days)?
Answer: eliminated

Question: And the “ability of DCS to facilitate extinction” value ([2]; rats, extinction paradigm 28 days later)?
Answer: restored

Question: And the “ability of DCS to facilitate extinction” value ([2]; rats, extinction paradigm two days later)?
Answer: significantly decreased

Question: What about the “serum concentrations generally maintained” value ([4]; dose of 500 mg/day) of the same compound?
Answer: 25000 to 30000 ng/mL

Question: What about the “time of peak serum concentrations after dosing” value ([4]; oral capsules) of the same compound?
Answer: 3 to 8 h

Question: And the peak serum concentrations ([4]; sub-antimicrobial doses (less than or equal to 2 mg/kg))?
Answer: less than or equal to 5 μg/mL

Question: What about the recorded side effects [5] of the same compound?
Answer: drowsiness, depression, headache, confusion, tremor, vertigo, and memory difficulties, paresthesias, and seizure
